The source of these data is patent US6642003B2, “Human glucose-dependent insulin-secreting cell line” (Cedars-Sinai Medical Center, priority 2001, dated 2003).

Some results are limits rather than exact numbers.

Experiment [1] relates to glucose-intolerant aging Wistar rats. The conditions noted are these: cited from earlier work.
Experiment [2] relates to PANC-1/IDX-1 cells. Kind of experiment: Immunofluorescence for IDX-1, PANC-1/IDX-1 cells. It is filed as cell-based, human. Here is the method:
(§1) PANC-1 cells were transfected with a pcDNA3 construct (Invitrogen; Carlsbad, Calif.) harboring the wild-type full-length IDX-1 cDNA using LipoTAXI (Catalog N. 204110; Mammalian Transfection Kit, Stratagene; La Jolla, Calif.). Control cells were transfected with the vector alone. The selection of positive (i.e. transfected) cells was carried out by culturing the cells in the presence of 400 μg/ml of G418 sulfate (GN-04, Omega; Tarzana, Calif.).
Cells were cultured on monocoated chamber slides (Nalge Nunc International; Naperville, Ill.) in the presence of GLP-1 (10 nM), or vehicle, for 72 h.
For the detection of IDX-1, slightly different conditions were used. Briefly: the concentration of paraformaldehyde was decreased to 2%, and the concentration of Triton to permeabilize the cells was raised to 0.2% Triton-X-100. Cells were then washed with 0.01 M PBS three times for 3-5 min, and non-specific binding was inhibited by using 5% chick serum in 0.01 M PBS, at room temperature for 60 min in a humid chamber. […] The percentage of IDX-1 containing cells was evaluated by counting the number of IDX-1 “positive” cells divided by the total number of cells identified by nuclear staining.

The subject of the next experiment is PANC-1 cells. Nature of the experiment: Flow cytometric (FACS) analysis for insulin, parental PANC-1 cells. It is filed as cell-based, human. The note with it: presence or absence of GLP-1; equivalent to assay background. The method, then: For fluorescence-activated cells sorting (FACS) analysis, cells were cultured in the presence of GLP-1 (10 nM), or vehicle, for 72 h, then washed with cold PBS (pH 7.4; three times) and incubated overnight, on ice, in PBS with 2% paraformaldehyde. After centrifugation, the cell pellet was resuspended in 400 μl of cold 0.1% Triton diluted in FACS buffer (PBS with 2% FCS). After several centrifugation and washes, the cells were resuspended in the assay buffer with of 10 μl of fluorescent-conjugated insulin antibody (Cat N. FM205, FITC: Chromaprobe, Inc; Mountain View, Calif.), in the presence of 10 μl of blocking antibody (anti-mouse IgG; Organon Teknika-Cappel, West Chester, Pa.). Control samples were treated with PBS, without the primary antibody, and then incubated with an […] FITC-conjugated control antibody (murine IgG; Chromaprobe Inc., Mountain View, Calif.). Flow cytometric analysis was performed with a FACScan[R] cytometer, using the LYSYS II program, and by fluorescence microscopy, as is well known in the art. See, e.g., E. Elstner, M. Linker-Israeli, J. Le, T. Umiel, P. Michl, J. W. Said, L. Binderup, J. C. […]
Background: In flow cytometry, cells or beads pass a laser one at a time.

A further experiment has as its system ARIP cells. Kind of experiment: Morphological changes (hematoxylin and eosin), ARIP cells. It is filed as cell-based, rat. The note with it: GLP-1 10 nM for 72 h. An excerpt:
Hematoxylin and eosin staining was employed, in some experiments, to show the morphological changes observed under the experimental conditions described below.

The test system of experiment [3] is PANC-1/IDX-1 cells. Nature of the experiment: Insulin release into culture medium (RIA), PANC-1 cells transfected with human IDX-1. It is filed as cell-based. Here is the method: Rat (ARIP) and human (PANC-1) ductal cell lines were respectively a gift from Dr. J. M. Egan (National Institute on Aging, Baltimore, Md.) or purchased from ATCC (American Type Culture Collection; Manassas, Va.). ARIP cells were cultured in F12 medium (Gibco-BRL, Gaithersburg; Md.) containing 100 μg/ml penicillin, 50 μg/ml streptomycin and 10% fetal calf serum (FCS; Gibco-BRL) at 37° C. under a humidified condition of 95% air and 5% CO2. PANC-1 cells were cultured in DMEM medium supplemented with antibiotics and FCS, as indicated for F12 medium. Treatment with human GLP-1 (H-6795, Bachem; King of Prussia, Pa.) was carried out using cells grown to 80% of confluence, after washing the cell layer with serum-free medium and a “wash-out” incubation for 6-h with serum free medium. To determine dose response to GLP-1, cells were cultured with fresh serum-free medium containing increasing concentration of GLP-1 (0.1, 1, 10, 20 nM), or vehicle alone. At the completion of the experiment, media and cells were collected. To determine the time course of response, cells were cultured in serum-free medium with GLP-1 (10 nM) for 0, 12, 24, 48, 72 or 96 h. Control dishes were cultured with vehicle alone, or with the peptide receptor antagonist of GLP-1, Exendin-9 (100 nM) for 72 h (gift Dr. J. M. Egan). The glucose concentration in the culture medium was 12 mM for both cell lines.
as §1
PANC-1 (parental, IDX-1-transfected, and neomycin-transfected) cells and ARIP (only parental) cells were plated at density of 10^6 cells/well in a 6 well plate. Once the cells reached 80% of confluence, they were washed with serum-free medium containing 12 mM glucose and exposed to fresh serum-free medium for increasing length of time (0, 12, 24, 48, 72, 96 h) in the presence of various concentrations of GLP-1 (0.1, 1, 10, 20 nM) or vehicle. Glucose-dependent insulin secretion was evaluated by culturing the cells in the presence of a determined concentration of GLP-1 (10 nM for 72 h) with increasing concentration of glucose in the culture medium ([…]). Insulin released into the medium was measured by RIA (Linco Research Inc.; St. Charles, Mass.). Total insulin accumulation in the culture medium was then normalized for total cellular protein content per each Individual cultures.
Total cellular protein content was measured by utilizing the Bradford method (Bio-Rad; Richmond, Calif.). The amount of proteins measured was used as a correction factor for determining the relative amount of medium to be assayed for each individual RIA for insulin.

As for glucagon-like peptide-1 [GLP-1], in experiment [1], the “effect on glucose tolerance” value is on record as “restored normal glucose tolerance” and the “effect on islet cell proliferation” value was “induced islet cell proliferation”. Further, the “effect on expression level of IDX-1” value with PANC-1/IDX-1 cells [2] (GLP-1 10 nM for 72 h) is listed as “further increase”. Moreover, the “cells expressing IDX-1” value in the experiment with PANC-1/IDX-1 cells [2] (GLP-1 or vehicle, 400 cells counted) is on record as around 100%. The “cells containing insulin in the cytoplasm” value in the experiment with PANC-1 cells amounted to 1.4%. Moreover, in the experiment with ARIP cells, the morphological change result is recorded as “promoted the aggregation of cells in small clusters”. The “lowest concentration of glucose required to induce the secretion of insulin” value in the experiment on PANC-1/IDX-1 cells [3] (GLP-1 10 nM for 72 h) is recorded as 3 mM. The “glucose dependence of insulin release” value in the experiment on PANC-1/IDX-1 cells [3] (GLP-1 10 nM for 72 h, increasing glucose) is “release insulin in a glucose-dependent manner”. Further, in the experiment on PANC-1/IDX-1 cells [3] (GLP-1 10 nM, 12 mM glucose), the “time of peak insulin secretion” value is at most 48 h and the “time of plateau of insulin secretion” value came out at 72 h. Moreover, the “concentration of GLP-1 required to induce insulin secretion” value in the experiment on PANC-1/IDX-1 cells [3] (serum-free medium, 12 mM glucose, 72 h) turned out to be 1 nM.
